US20250346583A1, “NEW DERIVATIVES FOR TREATING TRPM3 MEDIATED DISORDERS” (Katholieke Universiteit Leuven, priority 2022, published 2025)

Biological target: T1, mouse TRPM3α2 (mTRPM3) ion channel (Mus musculus, UniProt J9SQF3)
T1 construct: expressed in transfected cells; host or cells: flip-in HEK293
Test: TRPM3 ion channel driven Ca2+ uptake, Fluo-4 AM assay in overexpressing flip-in HEK293 cells
Format: cell-based
Conditions: inhibition of Ca2+ influx stimulated with Pregnenolone sulfate (PS) 50 μM
Method: Monitoring the TRPM3 Ion Channel Driven Ca^2+ Uptake.
In order to monitor the inhibition of the mouse TRPM3α2 (mTRPM3) ion channel by the compounds of the invention, a cellular system making use of an mTRPM3alpha2 or hTRPM3 overexpressing cell line (flip-in HEK293) was used. The TRPM3 channel was stimulated/opened with Pregnenolone sulfate (PS) (50 μM) which results in Ca^2+ influx.
For mTRPM3, the intracellular Ca^2+ was measured with a Calcium responsive dye, Fluor-4 AM ester (Invitrogen). Cells were cultured until a confluence of 80-90%, washed with Versene (Invitrogen) and detached from the surface by a short incubation with 0.05% Trypsin (Invitrogen). The trypsination process was stopped by the addition of complete cell culture medium (DMEM, glutamax,10% FCS, NEAA, Pen-Strep). Cells were collected and resuspended in Krebs buffer without Calcium at RT.
Prior the cell seeding (+2000 cells/well into a black, 384 well plate (Greiner)) the diluted compound was added in the assay plate, together with the PS dissolved in Krebs buffer containing Calcium. […] Directly after cell addition the plates were read on an Envision fluorescence reader (Perkin Elmer) by an Excitation of 485 nm and emission at 535 nm.
Channel inhibition was calculated compared to a non-PS stimulated control versus a condition stimulated with PS (50 μM) with vehicle. The ability of the compounds of the invention to inhibit this activity was determined as: Percentage inhibition=[1-((RFU determined for sample with test compound present - RFU determined for sample with positive control inhibitor) divided by (RFU determined in the presence of vehicle - RFU determined for sample with positive control inhibitor))]*100.
The activities of the Example compounds tested are depicted in the table below. The activity ranges A, B and C refer to IC50 values in the Fluo-4 AM assay as follows: “A”: IC50<1 μM; “B”: 1 μM<IC50<20 μM and “C”: IC50>20 μM

T1 sequence (J9SQF3 1-1709 isoform J9SQF3-12): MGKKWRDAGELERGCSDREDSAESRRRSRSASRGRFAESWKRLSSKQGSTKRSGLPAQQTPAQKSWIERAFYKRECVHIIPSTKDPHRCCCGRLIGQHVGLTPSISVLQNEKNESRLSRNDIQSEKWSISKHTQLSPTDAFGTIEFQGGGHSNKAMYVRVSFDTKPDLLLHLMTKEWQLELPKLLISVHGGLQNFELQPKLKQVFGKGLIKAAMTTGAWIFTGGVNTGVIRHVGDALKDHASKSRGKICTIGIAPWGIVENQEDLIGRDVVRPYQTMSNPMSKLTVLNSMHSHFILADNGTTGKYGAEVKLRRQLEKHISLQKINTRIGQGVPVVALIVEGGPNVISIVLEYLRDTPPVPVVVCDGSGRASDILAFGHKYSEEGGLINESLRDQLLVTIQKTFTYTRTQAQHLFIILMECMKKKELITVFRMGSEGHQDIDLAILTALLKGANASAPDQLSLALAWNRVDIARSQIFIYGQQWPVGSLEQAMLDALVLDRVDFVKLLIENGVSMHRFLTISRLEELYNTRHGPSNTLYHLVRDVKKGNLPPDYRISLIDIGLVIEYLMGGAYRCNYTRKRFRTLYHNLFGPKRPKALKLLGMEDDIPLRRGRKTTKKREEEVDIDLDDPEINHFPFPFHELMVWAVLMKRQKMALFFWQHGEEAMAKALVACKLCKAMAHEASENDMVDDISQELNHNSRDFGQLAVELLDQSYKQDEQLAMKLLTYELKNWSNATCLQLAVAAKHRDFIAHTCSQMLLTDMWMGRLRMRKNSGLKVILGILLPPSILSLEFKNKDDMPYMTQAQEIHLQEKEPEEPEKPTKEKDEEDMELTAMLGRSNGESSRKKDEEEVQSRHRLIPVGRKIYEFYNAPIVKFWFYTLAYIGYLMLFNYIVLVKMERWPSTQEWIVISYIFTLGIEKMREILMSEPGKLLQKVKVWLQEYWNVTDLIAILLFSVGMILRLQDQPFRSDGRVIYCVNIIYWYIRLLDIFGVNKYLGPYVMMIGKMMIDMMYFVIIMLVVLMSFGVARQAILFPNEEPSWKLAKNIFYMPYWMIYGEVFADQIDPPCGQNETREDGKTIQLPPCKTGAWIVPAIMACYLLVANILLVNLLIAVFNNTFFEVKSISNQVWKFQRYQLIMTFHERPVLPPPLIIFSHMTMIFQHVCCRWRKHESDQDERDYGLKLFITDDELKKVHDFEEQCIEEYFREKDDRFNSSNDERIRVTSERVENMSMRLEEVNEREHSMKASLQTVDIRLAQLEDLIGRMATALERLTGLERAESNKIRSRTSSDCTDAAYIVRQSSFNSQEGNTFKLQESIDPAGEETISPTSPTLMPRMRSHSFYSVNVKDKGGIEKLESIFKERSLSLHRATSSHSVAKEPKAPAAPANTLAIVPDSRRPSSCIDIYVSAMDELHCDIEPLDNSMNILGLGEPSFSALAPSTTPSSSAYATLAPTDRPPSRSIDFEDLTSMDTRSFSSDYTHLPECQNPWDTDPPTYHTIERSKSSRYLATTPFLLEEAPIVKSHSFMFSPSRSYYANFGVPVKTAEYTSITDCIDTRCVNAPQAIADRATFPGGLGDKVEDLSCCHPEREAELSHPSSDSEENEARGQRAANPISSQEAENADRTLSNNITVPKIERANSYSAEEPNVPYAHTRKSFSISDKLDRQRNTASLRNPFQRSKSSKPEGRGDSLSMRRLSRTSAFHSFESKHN

| SMILES | IC50 [nM] |
| --- | --- |
| Cc1oc2ccc(OCC3CC3)cc2c1C1(N)CC1 [Cpd 025, 1-[5-(cyclopropylmethoxy)-2-methyl-1-benzofuran-3-yl]cyclopropan-i-amine] | > 20000 |
| COCCC(=O)NC1(c2c(C)oc3ccc(OCc4cccnc4C(F)(F)F)cc23)CC1 [Cpd 008, 3-methoxy-N-[1-(2-methyl-5-{[2-(trifluoromethyl)pyridin-3-yl]methoxy}-1-benzofuran-3-yl)cyclopropyl]propanamide] | < 1000 |
| Cc1oc2ccc(OCc3cccnc3C(F)(F)F)cc2c1C1(NS(=O)(=O)C2CC2)CC1 [Cpd 005, N-[1-(2-methyl-5-{[2-(trifluoromethyl)pyridin-3-yl]methoxy}-1-benzofuran-3-yl)cyclopropyl]cyclopropanesulfonamide] | < 1000 |
| Cc1oc2ccc(OCc3cccnc3C(F)(F)F)cc2c1C1(NS(C)(=O)=O)CC1 [Cpd 006, N-[1-(2-methyl-5-{[2-(trifluoromethyl)pyridin-3-yl]methoxy}-1-benzofuran-3-yl)cyclopropyl]methanesulfonamide] | < 1000 |
| Cc1oc2ccc(OCc3cccnc3C(F)(F)F)cc2c1C1(NCC(N)=O)CC1 [Cpd 012, 2-{[1-(2-methyl-5-{[2-(trifluoromethyl)pyridin-3-yl]methoxy}-1-benzofuran-3-yl)cyclopropyl]amino}acetamide] | < 1000 |
| Cc1oc2ccc(OCc3c(F)cccc3Cl)cc2c1-c1nn[nH]n1 [Cpd 023, 5-{5-[(2-chloro-6-fluorophenyl)methoxy]-2-methyl-1-benzofuran-3-yl}-2H-1,2,3,4-tetrazole] | 1000 to 20000 |
| Cc1ncsc1COc1ccc2oc(C)c(C3(C#N)CC3)c2c1 [Cpd 011, 1-{2-methyl-5-[(4-methyl-1,3-thiazol-5-yl)methoxy]-1-benzofuran-3-yl}cyclopropane-i-carbonitrile] | < 1000 |
| COCC(=O)NC1(c2c(C)oc3ccc(OCc4cccnc4C(F)(F)F)cc23)CC1 [Cpd 010, 2-methoxy-N-[1-(2-methyl-5-{[2-(trifluoromethyl)pyridin-3-yl]methoxy}-1-benzofuran-3-yl)cyclopropyl]acetamide] | < 1000 |
| Cc1ncsc1COc1ccc2oc(C)c(C3(N)CC3)c2c1 [Cpd 027, 1-{2-methyl-5-[(4-methyl-1,3-thiazol-5-yl)methoxy]-1-benzofuran-3-yl}cyclopropan-i-amine] | > 20000 |
| Cc1ncsc1COc1ccc2oc(C)c(C3(C(N)=O)CC3)c2c1 [Cpd 022, 1-{2-methyl-5-[(4-methyl-1,3-thiazol-5-yl)methoxy]-1-benzofuran-3-yl}cyclopropane-1-carboxamide] | 1000 to 20000 |
| Cc1oc2ccc(OCc3ccccc3)cc2c1-c1nccc(CC(F)(F)F)n1 [Cpd 030, 2-[5-(benzyloxy)-2-methyl-1-benzofuran-3-yl]-4-(2,2,2-trifluoroethyl)pyrimidine] | > 20000 |
| Cc1oc2ccc(OCc3cccnc3C(F)(F)F)cc2c1C1(NS(=O)(=O)CC2CC2)CC1 [Cpd 013, 1-cyclopropyl-N-[1-(2-methyl-5-{[2-(trifluoromethyl)pyridin-3-yl]methoxy}-1-benzofuran-3-yl)cyclopropyl]methanesulfonamide] | < 1000 |
| Cc1oc2ccc(OCc3ccccc3)cc2c1C1(C#N)CC1 [Cpd 019, 1-[5-(benzyloxy)-2-methyl-1-benzofuran-3-yl]cyclopropane-1-carbonitrile] | 1000 to 20000 |
| Cc1oc2ccc(OCc3cccnc3C(F)(F)F)cc2c1C1(NC(=O)C(C)(C)O)CC1 [Cpd 009, 2-hydroxy-2-methyl-N-[1-(2-methyl-5-{[2-(trifluoromethyl)pyridin-3-yl]methoxy}-1-benzofuran-3-yl)cyclopropyl]propanamide] | < 1000 |
| Cc1ncsc1COc1ccc2oc(C)c(C3(NC(=O)CO)CC3)c2c1 [Cpd 017, 2-hydroxy-N-(1-{2-methyl-5-[(4-methyl-1,3-thiazol-5-yl)methoxy]-1-benzofuran-3-yl}cyclopropyl)acetamide] | 1000 to 20000 |
| Cc1ncsc1COc1ccc2oc(C)c(C3(CO)CC3)c2c1 [Cpd 004, (1-{2-methyl-5-[(4-methyl-1,3-thiazol-5-yl)methoxy]-1-benzofuran-3-yl}cyclopropyl)methanol] | < 1000 |
| Cc1oc2ccc(OCc3ccccc3)cc2c1-c1nccc(CO)n1 [Cpd 032, {2-[5-(benzyloxy)-2-methyl-1-benzofuran-3-yl]pyrimidin-4-yl}methanol] | > 20000 |
| Cc1ncsc1COc1ccc2oc(C)c(-c3ncc(CO)[nH]3)c2c1 [Cpd 007, (2-{2-methyl-5-[(4-methyl-1,3-thiazol-5-yl)methoxy]-1-benzofuran-3-yl}-1H-imidazol-4-yl)methanol] | < 1000 |
| Cc1oc2ccc(OCc3cccnc3C(F)(F)F)cc2c1C1(NC(=O)CO)CC1 [Cpd 003, 2-hydroxy-N-[1-(2-methyl-5-{[2-(trifluoromethyl)pyridin-3-yl]methoxy}-1-benzofuran-3-yl)cyclopropyl]acetamide] | < 1000 |
| Cc1oc2ccc(OCc3ccccc3)cc2c1-c1cncc(CC(F)(F)F)n1 [Cpd 029, 2-[5-(benzyloxy)-2-methyl-1-benzofuran-3-yl]-6-(2,2,2-trifluoroethyl)pyrazine] | > 20000 |
| Cc1oc2ccc(OCc3cccnc3C(F)(F)F)cc2c1C1(CN)CC1 [Cpd 016, 1-[1-(2-methyl-5-{[2-(trifluoromethyl)pyridin-3-yl]methoxy}-1-benzofuran-3-yl)cyclopropyl]methanamine] | 1000 to 20000 |

Other lines, results leading:

| IC50 [nM] | SMILES |
| --- | --- |
| 1000 to 20000 | Cc1oc2ccc(OCc3cccnc3O)cc2c1C1=NC(CO)(CO)CO1 [Cpd 018, 3-[({3-[4,4-bis(hydroxymethyl)-4,5-dihydro-1,3-oxazol-2-yl]-2-methyl-1-benzofuran-5-yl}oxy)methyl]pyridin-2-ol] |
| 1000 to 20000 | Cc1oc2ccc(OCc3ccccc3)cc2c1C1(CO)CC1 [Cpd 021, {1-[5-(benzyloxy)-2-methyl-1-benzofuran-3-yl]cyclopropyl}methanol] |
| > 20000 | Cc1ncc(COc2ccc3oc(C)c(C4(N)CC4)c3c2)s1 [Cpd 026, 1-{2-methyl-5-[(2-methyl-1,3-thiazol-5-yl)methoxy]-1-benzofuran-3-yl}cyclopropan-i-amine] |
| > 20000 | Cc1oc2ccc(OCc3ccccc3)cc2c1-c1cncc(CO)n1 [Cpd 031, {6-[5-(benzyloxy)-2-methyl-1-benzofuran-3-yl]pyrazin-2-yl}methanol] |
| 1000 to 20000 | Cc1oc2ccc(OCc3cccnc3C(F)(F)F)cc2c1C1(N)CC1 [Cpd 014, 1-(2-methyl-5-{[2-(trifluoromethyl)pyridin-3-yl]methoxy}-1-benzofuran-3-yl)cyclopropan-1-amine] |
| 1000 to 20000 | Cc1ncsc1COc1ccc2oc(C)c(C3(C(=O)NCCO)CC3)c2c1 [Cpd 020, N-(2-hydroxyethyl)-1-{2-methyl-5-[(4-methyl-1,3-thiazol-5-yl)methoxy]-1-benzofuran-3-yl}cyclopropane-1-carboxamide] |
| < 1000 | Cc1oc2ccc(OCc3cccnc3C(F)(F)F)cc2c1C1(CO)CC1 [Cpd 001, [1-(2-methyl-5-{[2-(trifluoromethyl)pyridin-3-yl]methoxy}-1-benzofuran-3-yl)cyclopropyl]methanol] |
| > 20000 | Cc1noc(-c2c(C)oc3ccc(OCc4c(F)cccc4Cl)cc23)n1 [Cpd 028, 5-{5-[(2-chloro-6-fluorophenyl)methoxy]-2-methyl-1-benzofuran-3-yl}-3-methyl-1,2,4-oxadiazole] |
| < 1000 | Cc1ncsc1COc1ccc2oc(C)c(-c3ncc(CO)o3)c2c1 [Cpd 002, (2-{2-methyl-5-[(4-methyl-1,3-thiazol-5-yl)methoxy]-1-benzofuran-3-yl}-1,3-oxazol-5-yl)methanol] |
| 1000 to 20000 | Cc1oc2ccc(OCc3ccccn3)cc2c1C1(N)CC1 [Cpd 024, 1-{2-methyl-5-[(pyridin-2-yl)methoxy]-1-benzofuran-3-yl}cyclopropan-i-amine] |
| 1000 to 20000 | Cc1oc2ccc(OCc3cccnc3C(F)(F)F)cc2c1C1(NC(C)C(N)=O)CC1 (centres unmarked) [Cpd 015, 2-{[1-(2-methyl-5-{[2-(trifluoromethyl)pyridin-3-yl]methoxy}-1-benzofuran-3-yl)cyclopropyl]amino}propanamide] |
